Values quoted from earlier work in US20040121025A1, “Oral composition for the treatment and prevention of bone loss” (priority 2002, published 2004).

How the values were obtained:
bone mineral density = settings: women treated with Lupron for six months; supplemental calcium; placebo decreased significantly
bone mass [1] = settings: 200 mg three times daily; two years; women age 50-65; placebo groups had significant bone loss
[2] = tested on: bone demineralization / bone loss; settings: with supplemental calcium
[3] = tested on: parathyroid hormone, vitamin D, prostaglandin E2, and interleukin 1-beta; settings: animal study, prostaglandin E2, interleukin 1-beta
estrogen like effects = settings: unlike many of the other isoflavones
bone loss [4] = settings: premenopausal women
bone mass [5] = tested on: bone mass
osteoporosis [6] = settings: including a form of vitamin D commonly used for osteoporosis
osteoporosis [7] = settings: elderly women over the age of 65
bone loss [8] = settings: men
[9] = tested on: parathyroid-stimulated osteoclastic activity; settings: ipriflavone supplementation in rats
bone loss [10] = settings: animal studies
bone loss [11] = settings: animal studies; remark: listed apart in the source

Compound: CC(C)Oc1ccc2c(=O)c(-c3ccccc3)coc2c1 [ipriflavone, 7-isopropoxysioflavone]
- bone density (bone mineral density): no changes in bone density
- bone mass (bone mass [1]): maintained or improved slightly
- safety and efficacy in halting bone loss ([2]; post-menopausal women or women who have had their ovaries removed): safe and effective in halting bone loss
- halting bone demineralization ([2]; postmenopausal women): effective in halting bone demineralization
- inhibition of compounds involved in increased resorption of bone [3]: inhibited a number of compounds known to be involved in increased resorption of bone
- estrogen like effects (estrogen like effects): does not exhibit estrogen like effects
- rapid bone loss that follows ovariectomy (bone loss [4]): prevents the rapid bone loss that follows ovariectomy
- maintaining bone mass with lower doses of estrogen (bone mass [5]; 0.15-0.30 mg/day estrogen with ipriflavone versus 0.625 mg/day or higher): equally effective in maintaining bone mass
- effect on the effects of estrogen on bone (bone mass [5]; in vivo): enhance the effects of estrogen on bone
- effect on other bone-preserving agents (osteoporosis [6]): enhance the effect of other bone-preserving agents
- treatment of osteoporosis (osteoporosis [7]): particularly effective
- preventing bone loss (bone loss [8]): effective in preventing bone loss in men
- parathyroid-stimulated osteoclastic activity and resulting hypercalcemia [9]: inhibited in a dosedependent manner
- bone loss associated with long term steroid use (bone loss [10]): inhibited bone loss
- bone loss associated with immobilization (bone loss [11]): inhibited bone loss
